Reference: patent publication US20120064180A1, “USE OF NO AND NO DONORS FOR TERMINATING DORMANCY IN INVERTEBRATES” (UNIVERSITEIT GENT, priority 2009, published 2012)

Tests used:
[1] = tested on: Bolshoye Yarovoye Artemia cysts (ARC BY 1706); assay: Post-diapause development of Bolshoye Yarovoye strain encysted Artemia embryos with NO donors; type: in vivo
Experimental: Encysted embryos (cysts) from a parthenogenetic strain of Artemia obtained in winter 2005-2006 in Bolshoye Yarovoye (Altay Region: 52° 51′64″ N-78° 37′32″ E), Russia (Artemia Reference Center (ARC) code number BY 1706), were stored in the dark at 4° C. in dry sealed bags. For the experiment, the cysts were grown at 26-28° C. with constant illumination in 25 ml of sea water under varying experimental conditions as detailed below.
To quantify larval (nauplii) emergence and hatching (FIG. 1) which served as measures of cyst development, 6 samples of 250 μl from each 50 ml tube were mixed individually with 250 μl of sea water and 2 drops of Lugol's solution (Van Stappen, G, 1996) prior to counting nauplii (N) and umbrella (U) with the aid of a dissecting microscope. […] The extent of development was determined as the percent of developed cysts which was calculated as either the number of hatched larvae, or the number of hatched and emerged larvae, obtained from 100 cysts, the latter represented by the sum of hatched nauplii (larvae), emerged larvae and undeveloped cysts containing embryos.
The hatching percentage (H %) was calculated according to: […]
The hatching percentage plus (H^+%) was calculated according to: […]
The percent of developed cysts was calculated as described above.

[2] = tested on: diapaused pupae of Heliothis virescens; settings: 30 min dip
Experimental: The larval stages of the tobacco budworm Heliothis virescens (Lepidoptera: Noctuidae) were reared on an artificial diet at standard conditions of 25° C. and long light conditions with 14 h light (Smagghe G et al., 1994). To produce nondiapause pupae, the larvae were kept at these conditions throughout development, whereas for pupal diapause induction, third instar larvae were transferred to 18° C. and short light conditions of 8 h light. The pupal stemma were examined to check the diapause status as described (Philips J R et al., 1966).
The treatment was done in capped plastic Falcon tubes of 10 ml. Controls were dipped in distilled water. After treatment, pupae were put in 9-cm Petri dishes, lined with a filter paper and kept at 25° C. and 14 h light, and development of adults was scored at daily intervals. Per treatment, 20 pupae were tested. Means±SD were compared to controls with a Student's t-test.

[3] = tested on: eggs with diapaused embryos of Bombyx mori; assay: Termination of embryonic diapause in eggs dipped in NO donor or HCl; type: in vivo; settings: SpermineNONOate 1 mM 30 min dip; 20% HCl 5 min 48° C.
Experimental: All experiments were carried out on silkmoth strain Bombyx mori J106 (Lepidoptera: Bombycidae). Larvae were maintained on an artificial diet (Yakuruto Co.) under standard conditions of 25° C., 65% relevant humidity and 16 h light ([…] et al., 2003). Egg batches were collected from a continuous insect colony and used for the experiments. […] The latter treatment is the normally used procedure to break diapause in eggs with diapaused embryos for maintenance of the insect colony of B. mori ([…] et al., 2003). In a water-control, eggs with diapaused embryos were dipped in distilled water only, and in a blank-control, eggs with diapaused were not treated. […] The numbers of eggs with diapaused embryos per treatment (n) are given with the results.

Q: For “N-[4-[1-(3-aminopropyl)-2-hydroxy-2-nitrosohydrazinobutyl]-1,3-propane diamine [Spermine NONOate]”, which “hatching after 24 hours” value ([1]; 40 and 60 μM, 24 hours, overcome by 48 hr) is on record?
A: less dramatic, but obvious

Q: And the “concentration at which NO donor was most effective on cyst development” value ([1]; Bolshoye Yarovoye cysts, FIG. 2A-F)?
A: 4.0 µM

Q: And the “time to develop into the adult stage” value ([2]; 1000 μM, control 9.17±0.75 d, p=0.01)?
A: 7.60 ± 0.89 days

Q: And the “time to adult stage versus controls” value ([2]; 10 and 100 μM)?
A: similar

Q: What about the “Number of developed neonates at day 6” value [3] of the same substance?
A: 28

Q: And the “Number of developed neonates at day 7” value [3]?
A: 22

Q: And the “Number of developed neonates at day 8” value [3]?
A: 10

Q: And the “Number of developed neonates at day 14” value [3]?
A: 0

Q: And the “Number of undeveloped eggs at day 14” value [3]?
A: 10

Q: And the “eggs developed into neonate larvae at 6-8 days after treatment (total)” value [3]?
A: 86%

Q: And the “percentage of developed neonates at day 14” value [3]?
A: (0%)
